Active and inactive are the calls of the source. The calls are words filed in the database; no cut-off is given here.
How the values were obtained:
[1] = test system: Brassica rapa subsp. oleifera; experiment: Post-emergence herbicidal activity against one-leaf stage Brassica rapa subsp. oleifera under greenhouse condition assessed as complete bleaching of leaves at 600 g /ha measured after 24 days by spray method; format: functional, organism-based
[2] = test system: Brassica rapa subsp. oleifera; experiment: Post-emergence herbicidal activity against one-leaf stage Brassica rapa subsp. oleifera under greenhouse condition at 7.5 g /ha measured after 24 days by spray method; format: functional; settings: 576 h, read-out: GI
[3] = test system: Brassica rapa subsp. oleifera; experiment: Post-emergence herbicidal activity against one-leaf stage Brassica rapa subsp. oleifera under greenhouse condition at 15 g /ha measured after 24 days by spray method; format: functional; settings: 576 h, read-out: GI
[4] = test system: Brassica rapa subsp. oleifera; experiment: Post-emergence herbicidal activity against one-leaf stage Brassica rapa subsp. oleifera under greenhouse condition at 30 g /ha measured after 24 days by spray method; format: functional; settings: 576 h, read-out: GI
[5] = test system: Brassica rapa subsp. oleifera; experiment: Post-emergence herbicidal activity against one-leaf stage Brassica rapa subsp. oleifera under greenhouse condition at 60 g /ha measured after 24 days by spray method; format: functional; settings: 576 h, read-out: GI
[6] = test system: Brassica rapa subsp. oleifera; experiment: Post-emergence herbicidal activity against one-leaf stage Brassica rapa subsp. oleifera under greenhouse condition at 75 g /ha measured after 24 days by spray method; format: functional; settings: 576 h, read-out: GI
[7] = test system: Brassica rapa subsp. oleifera; experiment: Post-emergence herbicidal activity against one-leaf stage Brassica rapa subsp. oleifera under greenhouse condition at 150 g /ha measured after 24 days by spray method; format: functional; settings: 576 h, read-out: GI
[8] = test system: Brassica rapa subsp. oleifera; experiment: Post-emergence herbicidal activity against one-leaf stage Brassica rapa subsp. oleifera under greenhouse condition at 300 g /ha measured after 24 days by spray method; format: functional; settings: 576 h, read-out: GI
[9] = test system: Brassica rapa subsp. oleifera; experiment: Post-emergence herbicidal activity against one-leaf stage Brassica rapa subsp. oleifera under greenhouse condition at 600 g /ha measured after 24 days by spray method; format: functional; settings: 576 h, read-out: GI
Digitaria [10] = experiment: Post-emergence herbicidal activity against one-leaf stage of Digitaria adscendens under greenhouse condition at 750 g /ha measured after 24 days by spray method; format: functional; settings: in Digitaria adscendens, 576 h, read-out: GI
Echinochloa crus-galli [11] = experiment: Post-emergence herbicidal activity against one-leaf stage of Echinochloa crus-galli (barnyard grass) under greenhouse condition at 750 g /ha measured after 24 days by spray method; format: functional; settings: 576 h, read-out: GI
Amaranthus retroflexus [12] = experiment: Post-emergence herbicidal activity against one-leaf stage of Amaranthus retroflexus under greenhouse condition at 750 g /ha measured after 24 days by spray method; format: functional; settings: 576 h, read-out: GI
[13] = test system: Brassica rapa subsp. oleifera; experiment: Post-emergence herbicidal activity against one-leaf stage Brassica rapa subsp. oleifera under greenhouse condition at 750 g /ha measured after 24 days by spray method; format: functional; settings: 576 h, read-out: GI
Digitaria [14] = experiment: Pre-emergence herbicidal activity against Digitaria adscendens under greenhouse condition at 750 g /ha measured after 24 days by spray method; format: functional; settings: in Digitaria adscendens, 576 h, read-out: GI
Echinochloa crus-galli [15] = experiment: Pre-emergence herbicidal activity against Echinochloa crus-galli (barnyard grass) under greenhouse condition at 750 g /ha measured after 24 days by spray method; format: functional; settings: 576 h, read-out: GI
Amaranthus retroflexus [16] = experiment: Pre-emergence herbicidal activity against Amaranthus retroflexus under greenhouse condition at 750 g /ha measured after 24 days by spray method; format: functional; settings: 576 h, read-out: GI
[17] = test system: Brassica rapa subsp. oleifera; experiment: Pre-emergence herbicidal activity against Brassica rapa subsp. oleifera under greenhouse condition at 750 g /ha measured after 24 days by spray method; format: functional; settings: 576 h, read-out: GI
Spirodela polyrhiza [18] = experiment: Bleaching herbicidal activity in Spirodela polyrhiza fronds cultured in compound-containing in medium assessed as chlorophyll inhibition at 1 ug/ml after 7 days; format: functional; settings: 168 h
Spirodela polyrhiza [19] = experiment: Bleaching herbicidal activity in Spirodela polyrhiza fronds cultured in compound-containing in medium assessed as chlorophyll inhibition at 10 ug/ml after 7 days; format: functional; settings: 168 h
Amaranthus retroflexus [20] = experiment: Post-emergence herbicidal activity against one-leaf stage Amaranthus retroflexus under greenhouse condition assessed as complete bleaching of leaves at 150 g /ha measured after 24 days by spray method; format: functional, organism-based
Amaranthus retroflexus [21] = experiment: Post-emergence herbicidal activity against one-leaf stage Amaranthus retroflexus under greenhouse condition assessed as complete bleaching of leaves at 300 g /ha measured after 24 days by spray method; format: functional, organism-based
Amaranthus retroflexus [22] = experiment: Post-emergence herbicidal activity against one-leaf stage Amaranthus retroflexus under greenhouse condition assessed as complete bleaching of leaves at 600 g /ha measured after 24 days by spray method; format: functional, organism-based
[23] = test system: Brassica rapa subsp. oleifera; experiment: Post-emergence herbicidal activity against one-leaf stage Brassica rapa subsp. oleifera under greenhouse condition assessed as complete bleaching of leaves at 7.5 g /ha measured after 24 days by spray method; format: functional, organism-based
[24] = test system: Brassica rapa subsp. oleifera; experiment: Post-emergence herbicidal activity against one-leaf stage Brassica rapa subsp. oleifera under greenhouse condition assessed as complete bleaching of leaves at 15 g /ha measured after 24 days by spray method; format: functional, organism-based
[25] = test system: Brassica rapa subsp. oleifera; experiment: Post-emergence herbicidal activity against one-leaf stage Brassica rapa subsp. oleifera under greenhouse condition assessed as complete bleaching of leaves at 30 g /ha measured after 24 days by spray method; format: functional, organism-based
[26] = test system: Brassica rapa subsp. oleifera; experiment: Post-emergence herbicidal activity against one-leaf stage Brassica rapa subsp. oleifera under greenhouse condition assessed as complete bleaching of leaves at 60 g /ha measured after 24 days by spray method; format: functional, organism-based
[27] = test system: Brassica rapa subsp. oleifera; experiment: Post-emergence herbicidal activity against one-leaf stage Brassica rapa subsp. oleifera under greenhouse condition assessed as complete bleaching of leaves at 75 g /ha measured after 24 days by spray method; format: functional, organism-based
[28] = test system: Brassica rapa subsp. oleifera; experiment: Post-emergence herbicidal activity against one-leaf stage Brassica rapa subsp. oleifera under greenhouse condition assessed as complete bleaching of leaves at 150 g /ha measured after 24 days by spray method; format: functional, organism-based
[29] = test system: Brassica rapa subsp. oleifera; experiment: Post-emergence herbicidal activity against one-leaf stage Brassica rapa subsp. oleifera under greenhouse condition assessed as complete bleaching of leaves at 300 g /ha measured after 24 days by spray method; format: functional, organism-based
Amaranthus retroflexus [30] = experiment: Post-emergence herbicidal activity against one-leaf stage Amaranthus retroflexus under greenhouse condition assessed as complete bleaching of leaves at 15 g /ha measured after 24 days by spray method; format: functional, organism-based
Amaranthus retroflexus [31] = experiment: Post-emergence herbicidal activity against one-leaf stage Amaranthus retroflexus under greenhouse condition at 7.5 g /ha measured after 24 days by spray method; format: functional; settings: 576 h, read-out: GI
Amaranthus retroflexus [32] = experiment: Post-emergence herbicidal activity against one-leaf stage Amaranthus retroflexus under greenhouse condition at 15 g /ha measured after 24 days by spray method; format: functional; settings: 576 h, read-out: GI
Amaranthus retroflexus [33] = experiment: Post-emergence herbicidal activity against one-leaf stage Amaranthus retroflexus under greenhouse condition at 30 g /ha measured after 24 days by spray method; format: functional; settings: 576 h, read-out: GI
Amaranthus retroflexus [34] = experiment: Post-emergence herbicidal activity against one-leaf stage Amaranthus retroflexus under greenhouse condition at 60 g /ha measured after 24 days by spray method; format: functional; settings: 576 h, read-out: GI
Amaranthus retroflexus [35] = experiment: Post-emergence herbicidal activity against one-leaf stage Amaranthus retroflexus under greenhouse condition at 75 g /ha measured after 24 days by spray method; format: functional; settings: 576 h, read-out: GI
Amaranthus retroflexus [36] = experiment: Post-emergence herbicidal activity against one-leaf stage Amaranthus retroflexus under greenhouse condition at 150 g /ha measured after 24 days by spray method; format: functional; settings: 576 h, read-out: GI
Amaranthus retroflexus [37] = experiment: Post-emergence herbicidal activity against one-leaf stage Amaranthus retroflexus under greenhouse condition at 300 g /ha measured after 24 days by spray method; format: functional; settings: 576 h, read-out: GI
Amaranthus retroflexus [38] = experiment: Post-emergence herbicidal activity against one-leaf stage Amaranthus retroflexus under greenhouse condition at 600 g /ha measured after 24 days by spray method; format: functional; settings: 576 h, read-out: GI
Amaranthus retroflexus [39] = experiment: Post-emergence herbicidal activity against one-leaf stage Amaranthus retroflexus under greenhouse condition assessed as complete bleaching of leaves at 7.5 g /ha measured after 24 days by spray method; format: functional, organism-based
Amaranthus retroflexus [40] = experiment: Post-emergence herbicidal activity against one-leaf stage Amaranthus retroflexus under greenhouse condition assessed as complete bleaching of leaves at 30 g /ha measured after 24 days by spray method; format: functional, organism-based
Amaranthus retroflexus [41] = experiment: Post-emergence herbicidal activity against one-leaf stage Amaranthus retroflexus under greenhouse condition assessed as complete bleaching of leaves at 60 g /ha measured after 24 days by spray method; format: functional, organism-based
Amaranthus retroflexus [42] = experiment: Post-emergence herbicidal activity against one-leaf stage Amaranthus retroflexus under greenhouse condition assessed as complete bleaching of leaves at 75 g /ha measured after 24 days by spray method; format: functional, organism-based

Cc1cc(-c2cccc(C(F)(F)F)c2)c(Oc2ccc(Cl)c(Cl)c2)nn1
Activity [1]: Active
inhibition of growth at 7.5 g/ha [2]: 58%
inhibition of growth at 15 g/ha [3]: 89%
inhibition of growth at 30 g/ha [4]: 100%
inhibition of growth at 60 g/ha [5]: 100%
inhibition of growth at 75 g/ha [6]: 100%
inhibition of growth at 150 g/ha [7]: 100%
inhibition of growth at 300 g/ha [8]: 100%
inhibition of growth at 600 g/ha [9]: 100%
inhibition of growth at 750 g/ha (Digitaria [10]): 100%
inhibition of growth at 750 g/ha (Echinochloa crus-galli [11]): 87%
inhibition of growth at 750 g/ha (Amaranthus retroflexus [12]): 100%
inhibition of growth at 750 g/ha [13]: 100%
inhibition of growth at 750 g/ha (Digitaria [14]): 6%
inhibition of growth at 750 g/ha (Echinochloa crus-galli [15]): 19%
inhibition of growth at 750 g/ha (Amaranthus retroflexus [16]): 0%
inhibition of growth at 750 g/ha [17]: 27%
inhibition at 1 µg/mL (Spirodela polyrhiza [18]): 93%
inhibition at 10 µg/mL (Spirodela polyrhiza [19]): 96%
Activity (Amaranthus retroflexus [20]): Active
Activity (Amaranthus retroflexus [21]): Active
Activity (Amaranthus retroflexus [22]): Active
Activity [23]: Active
Activity [24]: Active
Activity [25]: Active
Activity [26]: Active
Activity [27]: Active
Activity [28]: Active
Activity [29]: Active
Activity (Amaranthus retroflexus [30]): Active
inhibition of growth at 7.5 g/ha (Amaranthus retroflexus [31]): 32%
inhibition of growth at 15 g/ha (Amaranthus retroflexus [32]): 34%
inhibition of growth at 30 g/ha (Amaranthus retroflexus [33]): 42%
inhibition of growth at 60 g/ha (Amaranthus retroflexus [34]): 47%
inhibition of growth at 75 g/ha (Amaranthus retroflexus [35]): 85%
inhibition of growth at 150 g/ha (Amaranthus retroflexus [36]): 100%
inhibition of growth at 300 g/ha (Amaranthus retroflexus [37]): 100%
inhibition of growth at 600 g/ha (Amaranthus retroflexus [38]): 100%
Activity (Amaranthus retroflexus [39]): Active
Activity (Amaranthus retroflexus [40]): Active
Activity (Amaranthus retroflexus [41]): Active
Activity (Amaranthus retroflexus [42]): Active

Cc1cc(-c2cccc(C(F)(F)F)c2)c(Oc2ccc(C#N)cc2)nn1
Activity [1]: Active
inhibition of growth at 7.5 g/ha [2]: 41%
inhibition of growth at 15 g/ha [3]: 47%
inhibition of growth at 30 g/ha [4]: 57%
inhibition of growth at 60 g/ha [5]: 89%
inhibition of growth at 75 g/ha [6]: 90%
inhibition of growth at 150 g/ha [7]: 95%
inhibition of growth at 300 g/ha [8]: 98%
inhibition of growth at 600 g/ha [9]: 99%
inhibition of growth at 750 g/ha (Digitaria [10]): 99%
inhibition of growth at 750 g/ha (Echinochloa crus-galli [11]): 83%
inhibition of growth at 750 g/ha (Amaranthus retroflexus [12]): 100%
inhibition of growth at 750 g/ha [13]: 96%
inhibition of growth at 750 g/ha (Digitaria [14]): 99%
inhibition of growth at 750 g/ha (Echinochloa crus-galli [15]): 91%
inhibition of growth at 750 g/ha (Amaranthus retroflexus [16]): 99%
inhibition of growth at 750 g/ha [17]: 100%
inhibition at 1 µg/mL (Spirodela polyrhiza [18]): 87%
inhibition at 10 µg/mL (Spirodela polyrhiza [19]): 93%
Activity (Amaranthus retroflexus [20]): Active
Activity (Amaranthus retroflexus [21]): Active
Activity (Amaranthus retroflexus [22]): Active
Activity [23]: Active
Activity [24]: Active
Activity [25]: Active
Activity [26]: Active
Activity [27]: Active
Activity [28]: Active
Activity [29]: Active
Activity (Amaranthus retroflexus [30]): Active
inhibition of growth at 7.5 g/ha (Amaranthus retroflexus [31]): 34%
inhibition of growth at 15 g/ha (Amaranthus retroflexus [32]): 37%
inhibition of growth at 30 g/ha (Amaranthus retroflexus [33]): 38%
inhibition of growth at 60 g/ha (Amaranthus retroflexus [34]): 42%
inhibition of growth at 75 g/ha (Amaranthus retroflexus [35]): 99%
inhibition of growth at 150 g/ha (Amaranthus retroflexus [36]): 100%
inhibition of growth at 300 g/ha (Amaranthus retroflexus [37]): 100%
inhibition of growth at 600 g/ha (Amaranthus retroflexus [38]): 100%
Activity (Amaranthus retroflexus [39]): Active
Activity (Amaranthus retroflexus [40]): Active
Activity (Amaranthus retroflexus [41]): Active
Activity (Amaranthus retroflexus [42]): Active

Reference: ChEMBL document CHEMBL3045111, “Synthesis and herbicidal activities of novel 3-(substituted benzyloxy or phenoxy)-6-methyl-4-(3-trifluoromethylphenyl)pyridazine derivatives” (2012)
